Laboratory results from patent US20080039482A1, “SULFONAMIDO-MACROCYCLES AS TIE2 INHIBITORS AND SALTS THEREOF, PHARMACEUTICAL COMPOSITIONS COMPRISING SAME, METHODS OF PREPARING SAME AND USES OF SAME” (priority 2006, published 2008).

Legend:
Tie2 = Tie2 (Homo sapiens, UniProt Q02763); assay: Tie2 ELISA assay (assay 1): Ang2-stimulated Tie2 autophosphorylation in transfected CHO cells; type: cell-based; parameters: expressed in transfected cells; host or cells: CHO (DHFR selection); details: CHO Tie2/DHFR cells stimulated by angiopoietin-2, pIC50 = -log IC50 in molar concentration, read-out: Tie 2 activity (assay 1)
Sequence of Tie2 (Q02763 23-1124, species assumed): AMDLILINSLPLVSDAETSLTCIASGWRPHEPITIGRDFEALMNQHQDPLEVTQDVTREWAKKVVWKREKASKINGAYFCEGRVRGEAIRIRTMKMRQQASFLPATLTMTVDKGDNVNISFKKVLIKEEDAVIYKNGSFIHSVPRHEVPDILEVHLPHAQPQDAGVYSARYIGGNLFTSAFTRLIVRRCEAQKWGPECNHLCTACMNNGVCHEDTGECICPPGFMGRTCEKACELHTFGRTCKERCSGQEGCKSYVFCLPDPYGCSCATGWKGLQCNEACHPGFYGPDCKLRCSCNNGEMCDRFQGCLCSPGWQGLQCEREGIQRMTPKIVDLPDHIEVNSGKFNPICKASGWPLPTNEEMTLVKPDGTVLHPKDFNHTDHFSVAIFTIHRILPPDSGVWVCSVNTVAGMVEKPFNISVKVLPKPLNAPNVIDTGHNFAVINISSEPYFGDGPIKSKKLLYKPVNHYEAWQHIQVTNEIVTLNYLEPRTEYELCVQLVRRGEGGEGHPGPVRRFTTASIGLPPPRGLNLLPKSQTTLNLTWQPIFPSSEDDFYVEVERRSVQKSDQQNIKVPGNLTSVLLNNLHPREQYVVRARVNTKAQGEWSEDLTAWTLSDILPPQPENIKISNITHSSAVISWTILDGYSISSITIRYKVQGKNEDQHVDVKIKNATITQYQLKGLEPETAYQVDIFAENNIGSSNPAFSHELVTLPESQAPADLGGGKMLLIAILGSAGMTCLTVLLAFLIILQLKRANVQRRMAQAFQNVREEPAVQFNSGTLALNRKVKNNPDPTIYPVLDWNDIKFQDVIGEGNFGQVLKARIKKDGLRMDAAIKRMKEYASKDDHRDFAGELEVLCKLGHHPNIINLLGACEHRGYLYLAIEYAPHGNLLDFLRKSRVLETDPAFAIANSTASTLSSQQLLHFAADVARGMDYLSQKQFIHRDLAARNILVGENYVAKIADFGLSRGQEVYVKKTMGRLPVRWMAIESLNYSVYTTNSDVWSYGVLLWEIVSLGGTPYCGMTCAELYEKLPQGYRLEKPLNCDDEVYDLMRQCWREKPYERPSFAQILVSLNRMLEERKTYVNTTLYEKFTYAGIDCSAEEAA
Description: Cellular activity of compounds of the present invention as inhibitors of Tie2 kinase activity was measured employing a Tie2 ELISA assay as described in the following paragraphs. Herein CHO cell-cultures, which are stably transfected by known techniques with Tie2 using DHFR deficiency as selection marker, are stimulated by angiopoietin-2. The specific autophosphorylation of Tie2 receptors is quantified with a sandwich-ELISA using anti-Tie2 antibodies for catch and anti-phosphotyrosine antibodies coupled to HRP for detection.
• 96 well tissue culture plate, sterile, Greiner • 96 well FluoroNunc plate MaxiSorp Surface C, Nunc • 96 well plate polypropylene for compound dilution in DMSO • CHO Tie2/DHFR (transfected cells) • PBS−; PBS++, DMSO • MEM alpha Medium with Glutamax-I without Ribonucleosides and Deoxyribonucleosides (Gibco #32561-029) with 10% FCS after dialysis! and 1% PenStrep • Lysis buffer: 1 Tablet “Complete” protease inhibitor • 1 cap Vanadate (1 mL>40 mg/mL; working solution 2 mM) • ad 50 mL with Duschl-Puffer • pH 7.6 • Anti-Tie2-antibody 1:425 in Coating Buffer pH 9.6 • Stock solution: 1.275 mg/mL>working: 3 μg/mL • PBST: 2 bottles PBS (10×)+10 ml Tween, fill up with VE-water • RotiBlock 1:10 in VE-water • Anti-Phosphotyrosine HRP-Conjugated 1:10000 in 3% TopBlock • 3% TopBlock in PBST • BM Chemiluminescence ELISA Substrate (POD) • solution B 1:100 solution A • SF9 cell culture medium • Ang2-Fc in SF9 cell culture medium Cell Experiment: • Dispense 5×10^4 cells/well/98 μL in 96 well tissue culture plate • Incubate at 37° C./5% CO2 • After 24 h add compounds according to desired concentrations • Add also to control and stimulated values without compounds 2 μL DMSO • And mix for a few min at room temperature • Add 100 μL Ang2-Fc to all wells except control, which receives insect medium • Incubate 20 min at 37° C. • Wash 3× with PBS++ • Add 100 μl Lysis buffer/well and shake a couple of min at room temperature • Store lysates at […] before utilizing for the ELISA Performance of Sandwich-ELISA • Coat 96 well FluoroNunc Plate MaxiSorp Surface C with anti-Tie2 mAb • 1:425 in Coating buffer pH 9.6; 100 μL/well overnight at 4° C. • Wash 2× with PBST • Block plates with 250 μL/well RotiBlock 1:10 in VE-water • Incubate for 2 h at room temperature or overnight at 4° C. shaking • Wash 2× in PBST • Add thawed lysates to wells and incubate overnight shaking at 4° C. • Wash 2× with PBST • Add 100 μL/well anti-Phosphotyrosine HRP-Conjugated 1:10000 in 3% • TopBlock (3% TopBlock in PBST) and incubate overnight under shaking • Wash 6× with PBST • Add 100 μL/well BM Chemiluminescence ELISA Substrate (POD) • solutions 1 und 2 (1:100) • Determine luminescence with the LumiCount. Assay 2: Tie-2-Kinase HTRF-Assay Without Kinase Preactivation

Aurora-C = molecular target: T1, Aurora-C (Homo sapiens, UniProt Q9UQB9); assay: Aurora C HTRF assay (assay 5); type: biochemical; details: IC50 assay 5/IC50 assay 2
T1 construct: GST; made in house; host or cells: HEK293 (the text adds '(Sf9)', which contradicts this)
T1 sequence (Q9UQB9 1-309): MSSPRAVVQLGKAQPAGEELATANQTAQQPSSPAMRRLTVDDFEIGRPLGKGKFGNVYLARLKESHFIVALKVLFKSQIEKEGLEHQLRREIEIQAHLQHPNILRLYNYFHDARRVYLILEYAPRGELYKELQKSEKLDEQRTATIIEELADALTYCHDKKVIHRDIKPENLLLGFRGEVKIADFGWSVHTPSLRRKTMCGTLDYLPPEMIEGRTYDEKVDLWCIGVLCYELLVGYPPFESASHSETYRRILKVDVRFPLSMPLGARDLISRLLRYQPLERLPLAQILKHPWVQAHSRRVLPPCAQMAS
Excerpt: Assay 5: Aurora C HTRF Assay
Aurora-C inhibitory activity of compounds of the present invention was quantified employing the Aurora-C HTRF assay as described in the following paragraphs.
Recombinant fusion protein of GST and human Aurora-C was expressed in transiently transfected HEK293 cells (Sf9) and purified by Glutathion-Sepharose affinity chromatography. As substrate for the kinase reaction biotinylated peptide biotin-Ttds-FMRLRRLSTKYRT (C-terminus in amid form) was used which can be purchased e.g. form the company JERINI peptide technologies (Berlin, Germany). Aurora-C was incubated for 60 min at 22° C. in the presence of different concentrations of test compounds in 5 μl assay buffer [25 mM Hepes/NaOH pH 7.4, 0.5 mM MnCl2, 2.0 mM dithiothreitol, 0.1 mM sodium ortho-vanadate, 10 μM adenosine-tri-phosphate (ATP), […] substrate, 0.01% (v/v) TritonX-100 (Sigma), 0.05% (w/v) bovine serum albumin, 1% (v/v) dimethylsulfoxide]. The concentration of Aurora-C was adjusted depending of the activity of the enzyme lot and was chosen appropriate to have the assay in the linear range, typical concentrations were in the range of 0.3 nM. The reaction was stopped by the addition of 5 μl of a solution of HTRF detection reagents (0.2 μM streptavidine-XLent and 1.4 nM Anti-Phospho-(Ser/Thr) Akt substrate-Cryptate (Cis biointernational, France, product no. 61P02KAE), a labeled Phospho-(Ser/Thr) Akt substrate antibody [product #9611B, Cell Signalling Technology, Danvers, Mass., USA] labeled with Europium Cryptate, in an aqueous EDTA-solution (40 mM EDTA, 400 mM KF, 0.05% (w/v) bovine serum albumin in 25 mM HEPES/NaOH pH 7.0).
The resulting mixture was incubated 1 h at 22° C. to allow the binding of the biotinylated phosphorylated peptide to the streptavidine-XLent and the Anti-Phospho-(Ser/Thr) Akt substrate-Cryptate. Subsequently the amount of phosphorylated substrate was evaluated by measurement of the resonance energy transfer from the Prot-A-EuK to the streptavidine-XLent. Therefore, the fluorescence emissions at 620 nm and 665 nm after excitation at 350 nm was measured in a HTRF reader, e.g. a Rubystar (BMG Labtechnologies, Offenburg, Germany) or a Viewlux (Perkin-Elmer). The ratio of the emissions at 665 nm and at […] was taken as the measure for the amount of phosphorylated substrate. The data were normalised (enzyme reaction without inhibitor=0% inhibition, all other assay components but no enzyme=100% inhibition) and IC50 values were calculated by a 4 parameter fit using an inhouse software.

IC50 (Tie2): < 100 nM
Selectivity vs. Aurora C (Aurora-C): >20 fold
SMILES: O=C(Nc1ccc(-c2cnc3nc2NCCCNS(=O)(=O)c2cccc(c2)N3)cc1)C1(c2ccc(C(F)(F)F)cc2)CC1 [Example 11, 1-(4-Trifluoromethyl-phenyl)-cyclopropane-carboxylic acid [4-(13,13-dioxo-13λ^6-thia-2,4,8,12,19-pentaaza-tricyclo[12.3.1.1^3,7]nonadeca-1(18),3(19),4,6,14,16-hexaen-6-yl)-phenyl]-amide]
